Measurements taken from US8735584B2 (Merck Patent GmbH, priority 2008, dated 2014).

target: T1, GST-Aurora A (Homo sapiens, UniProt O14965); test: Aurora A IC50, Caliper LC3000 mobility shift assay; type: biochemical; conditions: LC3000 method; 15 uM ATP (the KM value); read-out: Aurora Kinase A Activity (IC50)
T1 construct: N-terminal GST fusion with full length Aurora A (1-403 amino acids); purchased Carna Biosciences 05-101
T1 sequence (O14965 1-403): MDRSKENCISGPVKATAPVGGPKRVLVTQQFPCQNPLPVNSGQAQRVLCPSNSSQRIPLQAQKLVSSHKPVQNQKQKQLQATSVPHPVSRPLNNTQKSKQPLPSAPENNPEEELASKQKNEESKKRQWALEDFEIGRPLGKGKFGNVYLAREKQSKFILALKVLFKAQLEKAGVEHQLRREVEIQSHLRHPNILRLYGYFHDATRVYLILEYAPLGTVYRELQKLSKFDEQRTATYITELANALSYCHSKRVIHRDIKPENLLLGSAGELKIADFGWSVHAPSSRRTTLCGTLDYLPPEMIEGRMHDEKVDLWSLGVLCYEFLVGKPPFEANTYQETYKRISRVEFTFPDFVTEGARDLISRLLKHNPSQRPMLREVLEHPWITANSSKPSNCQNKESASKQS
Experimental: The Aurora assays described here are performed on two Caliper Life Sciences systems: the LC3000 and the Desktop Profiler. These provide data on enzyme activity via measurement of the relative amounts of phosphorylated or unphosphorylated fluorescently labelled substrate peptide at the end of an enzymatic reaction. These different states of peptide are resolved by applying a potential difference across the sample. The presence of the charged phosphate group on the product (as opposed to the substrate) causes a different peptide mobility between the two peptides. This is visualized by excitation of the fluorescent label on the substrate and product peptides and represented as peaks within the analysis software.
In order to measure inhibitor activity of Aurora A inhibitors in the Caliper Life Sciences LC3000, a TTP Mosquito liquid handling instrument is used to place 0.25 ul of the appropriate concentration of inhibitor in 100% DMSO (for a dose response curve calculation) into each well of a 384-well plate. To this reaction components are added to a final volume of 25 ul: • 0.067 ng/ul GST-Aurora A (Carna Biosciences 05-101. N-terminal GST fusion with full length Aurora A (1-403 amino acids), accession number NP 940835.1). • 15 uM ATP (Fluke, 02055) • 1 mM DTT (Sigma, D0632) • 1 mM MgCl2 (Sigma, M1028) • 1 uM substrate peptide (sequence FITC-LRRASLG-(CONH2), synthesized by Tufts Peptide Synthesis service. • 100 mM HEPES pH 7.5 (Calbiochem, 391338) • 0.015% Brij-35 (Sigma, B4184)
The reaction is incubated for 90 min at 25 C, and then stopped by the addition of 70 ul of Stop buffer (100 mM HEPES pH 7.5, 0.015% Brij-35, 10 mM EDTA (Sigma, E7889)).
The plate is read on a Caliper LC3000 in an Off-Chip mobility shift assay format, using the following parameters for a 12-sipper chip: screening pressure—1.8 psi, upstream voltage—2700, downstream voltage—1000. These conditions cause unphosphorylated substrate and phosphorylated product peptide to resolve as separate peaks allowing direct measurement of percentage of conversion of substrate to product. The percent conversion can be plotted against concentration of inhibitor to produce a sigmoidal dose response curve, from which an 1050 can be calculated using XLFit for Microsoft Excel.
In the desired wells of a 384-well plate, Aurora A (0.067 ng/ul) was incubated with 15 uM ATP (the KM value), 1 mM DTT, 1 mM MgCl2, and 1 uM peptide substrate (sequence FITC-LRRASLG-(CONH2), FITC=fluorescein isothiocyanate) in 100 mM HEPES pH 7.5 and 0.015% Brij-35 buffer. The reaction was incubated for 90 min at 25 C, and then stopped by the addition of 45 ul of Stop buffer (100 mM HEPES ph 7.5, 0.015% Brij-35, 10 mM EDTA).
The plate was read in a Caliper LC 3000 in an Off-Chip mobility shift assay format, using the following parameters: screening pressure—1.8 psi, upstream voltage—2700, downstream voltage—1000. These conditions cause unphosphorylated substrate peptide to resolve as a peak before that of the phosphorylated peptide product.
In the following table “+” means >100 nM, “++” means 11-100 nM, and “+++” means <11 nM.

Row | Structure (SMILES) | IC50 [nM]
1 | O=C(CN1CCC(Nc2ccnc3[nH]c(=O)c4ccccc4c23)CC1)Nc1cccc(F)c1 [Compound 373, N-(3-Fluorophenyl)-2-(4-(6-oxo-5,6-dihydrobenzo[c][1,8]naphthyridin-1-ylamino)piperidin-1-yl)acetamide] | 11 to 100
2 | CN1CCN(C(=O)c2ccc3c(=O)[nH]c4nccc(Nc5ccc(NC(=O)c6ccccc6)cc5)c4c3c2)CC1 [Compound 290, N-(4-(9-(4-Methylpiperazine-1-carbonyl)-6-oxo-5,6-dihydrobenzo[c][1,8]naphthyridin-1-ylamino)phenyl)benzamide] | 11 to 100
3 | O=C(Nc1ccc(Nc2ccnc3[nH]c(=O)c4ccccc4c23)cc1)c1ccc(Cl)c(Cl)c1 [Compound 398, 3,4-Dichloro-N-[4-(6-oxo-5,6-dihydro-benzo[c][1,8]naphthyridin-1-ylamino)-phenyl]-benzamide] | < 11
4 | O=C(Nc1ccc(Nc2ccnc3[nH]c(=O)c4ccccc4c23)cc1)C1CCCCC1 [Compound 386, Cyclohexanecarboxylic acid-[4-(6-oxo-5,6-dihydro-benzo[c][1,8]naphthyridin-1-ylamino)-phenyl]-amide] | < 11
5 | O=c1[nH]c2ncccc2c2cc(NCc3ccc(Cl)cc3)ccc12 [Compound 452, 9-(4-Chlorobenzylamino)benzo[c][1,8]naphthyridin-6(5H)-one] | > 100
6 | COc1cc2c(=O)[nH]c3nccc(Nc4ccc(F)cc4)c3c2cc1OC [Example 215, 1-(4-Fluoro-phenylamino)-8,9-dimethoxy-5H-benzo[c][1,8]naphthyridin-6-one] | > 100
7 | O=C(Cc1cc(Nc2ccnc3[nH]c(=O)c4ccccc4c23)n[nH]1)Nc1ccccc1 [Compound 315, 2-(3-(6-Oxo-5,6-dihydrobenzo[c][1,8]naphthyridin-1-ylamino)-1H-pyrazol-5-yl)-N-phenylacetamide] | > 100
8 | O=C(Nc1ccc(Nc2ccnc3[nH]c(=O)c4ccc(C(F)(F)F)cc4c23)cc1)c1ccccc1 [Compound 403, N-[4-(9-Trifluoromethyl-6-oxo-5,6-dihydro-benzo[c][1,8]naphthyridin-1-ylamino)-phenyl]-benzamide] | < 11
9 | O=C(Nc1ccc(Nc2ccnc3[nH]c(=O)c4ccccc4c23)cc1)c1cc(C(F)(F)F)cc(C(F)(F)F)c1 [Compound 400, N-[4-(6-Oxo-5,6-dihydro-benzo[c][1,8]naphthyridin-1-ylamino)-phenyl]-3,5-bis-trifluoromethyl-benzamide] | 11 to 100
10 | O=c1[nH]c2ncccc2c2cc(NCc3c(F)cccc3C(F)(F)F)ccc12 [Compound 461, 9-(2-Fluoro-6-(trifluoromethyl)benzylamino)benzo[c][1,8]naphthyridin-6(5H)-one] | > 100
11 | O=c1[nH]c2ncccc2c2cc(NCc3ccccc3Br)ccc12 [Compound 469, 9-(2-Bromobenzylamino)benzo[c][1,8]naphthyridin-6(5H)-one] | 11 to 100
12 | O=c1[nH]c2ncccc2c2cc(NCc3cccnc3)ccc12 [Example 123, 9-[(Pyridin-3-ylmethyl)-amino]-5H-benzo[c][1,8]naphthyridin-6-one] | > 100
13 | O=C(Nc1ccc(Nc2ccnc3[nH]c(=O)c4ccccc4c23)cc1)C1CC1 [Compound 351, N-(4-(6-Oxo-5,6-dihydrobenzo[c][1,8]naphthyridin-1-ylamino)phenyl)cyclopropanecarboxamide] | 11 to 100
14 | O=C(Nc1ccc(Nc2ccnc3[nH]c(=O)c4ccc(CO)cc4c23)cc1)c1ccccc1 [Compound 279, N-(4-(9-(Hydroxymethyl)-6-oxo-5,6-dihydrobenzo[c][1,8]naphthyridin-1-ylamino)phenyl)benzamide] | < 11
15 | NC(=O)c1ccc2c(=O)[nH]c3nccc(Nc4ccc(NC(=O)c5ccccc5)cc4)c3c2c1 [Compound 282, 1-(4-benzamidophenylamino)-6-oxo-5,6-dihydrobenzo[c][1,8]naphthyridine-9-carboxamide] | < 11
16 | CN(C)C(=O)c1ccc2c(=O)[nH]c3nccc(Nc4ccc(NC(=O)c5ccccc5)cc4)c3c2c1 [Compound 283, 1-(4-Benzamidophenylamino)-N,N-dimethyl-6-oxo-5,6-dihydrobenzo[c][1,8]naphthyridine-9-carboxamide] | 11 to 100
17 | CN1CCN(CCNC(=O)c2ccc3c(c2)c(=O)[nH]c2nccc(Nc4ccc(NC(=O)c5ccccc5)cc4)c23)CC1 [Compound 271, 1-(4-Benzamidophenylamino)-N-(2-(4-methylpiperazin-1-yl)ethyl)-6-oxo-5,6-dihydrobenzo[c][1,8]naphthyridine-8-carboxamide] | 11 to 100
18 | O=C(Nc1ccc(Nc2ccnc3[nH]c(=O)c4ccc(C(F)(F)F)cc4c23)cc1)c1ccc(F)cc1C(F)(F)F [Compound 404, 4-Fluoro-N-[4-(9-trifluoromethyl-6-oxo-5,6-dihydro-benzo[c][1,8]naphthyridin-1-ylamino)-phenyl]-2-trifluoromethyl-benzamide] | < 11
19 | O=C(CN1CCC(Nc2ccnc3[nH]c(=O)c4ccccc4c23)CC1)Nc1ccccn1 [Compound 483, 2-(4-(6-Oxo-5,6-dihydrobenzo[c][1,8]naphthyridin-1-ylamino)piperidin-1-yl)-N-(pyridin-2-yl)acetamide] | > 100
20 | O=c1[nH]c2ncccc2c2cc(NCc3ccccc3Cl)ccc12 [Compound 470, 9-(2-Chlorobenzylamino)benzo[c][1,8]naphthyridin-6(5H)-one] | 11 to 100
21 | O=C(CN1CCC(Nc2ccnc3[nH]c(=O)c4ccccc4c23)CC1)NC1CC1 [Compound 488, N-Cyclopropyl-2-(4-(6-oxo-5,6-dihydrobenzo[c][1,8]naphthyridin-1-ylamino)piperidin-1-yl)acetamide] | > 100
22 | CNC(=O)Nc1ccc(Nc2ccnc3[nH]c(=O)c4ccccc4c23)cc1 [Compound 342, 1-Methyl-3-(4-(6-oxo-5,6-dihydrobenzo[c][1,8]naphthyridin-1-ylamino)phenyl)urea] | 11 to 100
23 | O=C(Nc1ccc(Oc2ccnc3[nH]c(=O)c4ccccc4c23)c(F)c1)c1cc(Cl)cnc1Cl [Example 183, 2,5-Dichloro-N-[3-fluoro-4-(6-oxo-5,6-dihydro-benzo[c][1,8]naphthyridin-1-yloxy)-phenyl]-nicotinamide] | > 100
24 | COc1cc2c(=O)[nH]c3nccc(Nc4ccc(Cl)cc4)c3c2cc1OC [Example 213, 1-(4-Chloro-phenylamino)-8,9-dimethoxy-5H-benzo[c][1,8]naphthyridin-6-one] | 11 to 100
25 | O=c1[nH]c2nccc(Nc3c(Cl)ccc4c3OCO4)c2c2ccccc12 [Example 188, 1-(5-Chloro-benzo[1,3]dioxol-4-ylamino)-5H-benzo[c][1,8]naphthyridin-6-one] | > 100
26 | CN(C)CCNC(=O)c1cccc2c1c(=O)[nH]c1nccc(Nc3ccc(NC(=O)c4ccc(F)cc4C(F)(F)F)cc3)c12 [Compound 440, 1-[4-(4-Fluoro-2-trifluoromethyl-benzoylamino)-phenylamino)-6-oxo-5,6-dihydro-benzo[c][1,8]naphthyridin-7-carboxylic acid 2-dimethylamino-ethyl amide] | < 11
27 | O=C(CN1CCC(Nc2ccnc3[nH]c(=O)c4ccccc4c23)C1)Nc1ccccc1 (stereo not drawn) [Compound 371, 2-(3-(6-Oxo-5,6-dihydrobenzo[c][1,8]naphthyridin-1-ylamino)pyrrolidin-1-yl)-N-phenylacetamide] | > 100
